{"source": "ChEMBL document CHEMBL1152412", "about": "“Isolation, biomimetic synthesis, and cytotoxic activity of bis(pseudopterane) amines” (J Nat Prod, 2009)", "key": {"HeLa": {"system": "HeLa", "assay": "Cytotoxicity against human HeLa cells after 72 hrs", "format": "functional, cell-based"}, "HCT-116": {"system": "HCT-116", "assay": "Cytotoxicity against human HCT116 cells after 72 hrs", "format": "functional, cell-based", "conditions": "HCT-116, 72 h"}}, "note": "pIC50: −log10 of the molar value."}
{"compound": "C=C(C)[C@H]1C2=CC(C(=O)OC)=C(C[C@H](C(=C)C)[C@@H](O)[C@@H](N[C@H]3C4=C[C@@H](OC4=O)[C@@H](C(=C)C)C4=CC(C(=O)OC)=C(C[C@H](C(=C)C)[C@H]3O)O4)C3=C[C@H]1OC3=O)O2", "note": "[BIS(GORGIACEROL)AMINE]", "values": [{"measurement": "pIC50", "setting": "HeLa", "result": "< 4.00"}, {"measurement": "pIC50", "setting": "HCT-116", "result": 4.55}]}
{"compound": "C=C(C)[C@H]1C2=CC(C(=O)OC)=C(C[C@H](C(=C)C)[C@H](O)/C=C3\\C(=O)O[C@@H]1[C@@H]3N[C@H]1C3=C[C@@H](OC3=O)[C@@H](C(=C)C)C3=CC(C(=O)OC)=C(C[C@H](C(=C)C)[C@H]1O)O3)O2", "note": "[BIS(PSEUDOPTERANE)AMINE]", "values": [{"measurement": "pIC50", "setting": "HeLa", "result": 4.38}, {"measurement": "pIC50", "setting": "HCT-116", "result": 5.40}]}
